In paper PMC4394749 (Journal of medicinal chemistry, 2015):
Like-named read-outs stand apart in the source and are kept apart here.

Assays:
[1] = tested on: KB-VIN (P-gp-overexpressing MDR subline of KB); assay: SRB antiproliferative assay, KB-VIN; assay type: cell-based, human; conditions: read-out: IC50 KB-VIN, 72 h
human tumor cell lines = assay: SRB antiproliferative assay, comparison across tumor cell lines; assay type: cell-based
A549 (lung carcinoma) [2] = assay: SRB antiproliferative assay, A549; assay type: cell-based, human; conditions: read-out: IC50 A549, 72 h
PC-3 (prostate cancer) [3] = assay: SRB antiproliferative assay, PC-3; assay type: cell-based, human; conditions: read-out: IC50 PC-3; SRB, 72 h
bovine brain tubulin [4] = molecular target: T1, bovine brain tubulin (Bos taurus, UniProt P81947+Q6B856); assay: Inhibition of [3H]colchicine binding to tubulin; conditions: for ICB, percent inhibition of colchicine binding: 5 µM [3H]colchicine, 1 µM tubulin, 5 µM test compound
T1 sequence (P81947 whole entry): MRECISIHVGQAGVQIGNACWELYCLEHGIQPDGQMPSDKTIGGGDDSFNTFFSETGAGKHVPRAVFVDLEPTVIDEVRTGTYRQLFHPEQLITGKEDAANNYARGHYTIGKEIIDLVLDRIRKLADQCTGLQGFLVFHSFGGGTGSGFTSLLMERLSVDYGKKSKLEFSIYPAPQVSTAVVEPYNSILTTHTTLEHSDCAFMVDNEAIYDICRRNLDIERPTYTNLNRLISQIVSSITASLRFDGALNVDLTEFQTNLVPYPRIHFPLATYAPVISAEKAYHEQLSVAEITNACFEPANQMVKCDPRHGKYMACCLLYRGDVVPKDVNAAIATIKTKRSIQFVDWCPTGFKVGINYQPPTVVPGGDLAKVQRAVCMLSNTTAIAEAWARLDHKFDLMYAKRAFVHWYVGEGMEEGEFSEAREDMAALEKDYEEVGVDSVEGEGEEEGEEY
T1 sequence (Q6B856 whole entry): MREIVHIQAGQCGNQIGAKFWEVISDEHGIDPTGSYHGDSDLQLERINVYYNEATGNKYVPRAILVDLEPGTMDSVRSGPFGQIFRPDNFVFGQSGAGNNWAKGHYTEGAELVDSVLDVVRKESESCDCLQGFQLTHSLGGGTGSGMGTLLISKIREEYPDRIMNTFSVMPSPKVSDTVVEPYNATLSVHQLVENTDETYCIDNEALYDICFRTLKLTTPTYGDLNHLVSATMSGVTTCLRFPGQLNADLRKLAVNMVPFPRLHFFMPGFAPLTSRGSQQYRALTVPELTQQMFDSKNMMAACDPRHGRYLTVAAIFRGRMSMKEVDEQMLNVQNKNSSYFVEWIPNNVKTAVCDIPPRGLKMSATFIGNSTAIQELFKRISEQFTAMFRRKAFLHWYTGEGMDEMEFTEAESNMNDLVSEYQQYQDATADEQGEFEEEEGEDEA

[5] = tested on: HepG2 (hepatocellular carcinoma); assay: SRB antiproliferative assay, HepG2; assay type: cell-based, human; conditions: for IC50: read-out: IC50 Hep-G2, 72 h
[6] = tested on: HCT-8 (human colon adenocarcinoma); assay: SRB antiproliferative assay, HCT-8; assay type: cell-based; conditions: SRB, 72 h; for IC50: read-out: IC50 HCT-8
[7] = tested on: KB (epidermoid carcinoma of the nasopharynx); assay: SRB antiproliferative assay, KB; assay type: cell-based, human; conditions: read-out: IC50 KB, 72 h
[8] = tested on: SK-BR-3 (HER2-overexpressing breast cancer); assay: SRB antiproliferative assay, SK-BR-3; assay type: cell-based, human; conditions: read-out: IC50 SK-BR3, 72 h
[9] = tested on: MCF-7 (estrogen-receptor-positive, HER2-negative breast cancer); assay: SRB antiproliferative assay, MCF-7; assay type: cell-based, human; conditions: read-out: IC50 MCF-7, 72 h
[10] = tested on: MDA-MB-231 (triple-negative breast cancer); assay: SRB antiproliferative assay, MDA-MB-231; assay type: cell-based, human; conditions: read-out: IC50 MDA-MB-231, 72 h
[11] = tested on: ZR-75-1 (estrogen-receptor-positive, HER2-positive breast cancer); assay: SRB antiproliferative assay, ZR-75-1; assay type: cell-based, human; conditions: read-out: IC50 ZR-75-1, 72 h
[12] = tested on: tumor cell lines overexpressing P-gp; conditions: cited from earlier work
bovine brain tubulin [13] = molecular target: T1, bovine brain tubulin; assay: Inhibition of purified tubulin assembly; assay type: biochemical
PC-3 cells [14] = assay: Cell cycle analysis by flow cytometry; assay type: cell-based, human; conditions: 2 µM, 24 h
PC-3 cells [15] = assay: Immunofluorescence staining of microtubules in PC-3 cells; assay type: cell-based, human; conditions: PC-3, 24 h; for dose-dependent effects on microtubule morphology: compounds 0.2, 2 or 20 µM, CA-4 0.002 or 20 µM; for microtubule morphology: equitoxic concentrations: 0.2 µM 4, 0.2 µM CA-4, 5 µM VIN, 0.2 µM PXL
KB-VIN cells [16] = assay: Cell cycle analysis by flow cytometry; assay type: cell-based, human; conditions: 6 or 24 h, PXL 3 µM, 4 0.5 µM, 8 2 µM
KB cells = assay: Cell cycle analysis by flow cytometry; assay type: cell-based, human; conditions: 6 or 24 h, PXL 0.02 µM, 4 0.5 µM, 8 2 µM
KB-VIN cells [17] = assay: Tubulin assembly in KB-VIN cells; assay type: cell-based, human; conditions: data not shown
[18] = tested on: MDA-MB-231 (triple-negative breast cancer); conditions: read-out: IC50 MDA-MB-231; SRB; compound marked 'See ref [15]'; cited from earlier work
[19] = molecular target: MCF-7 (estrogen-receptor-positive, HER2-negative breast cancer); conditions: read-out: IC50 MCF-7; SRB; compound marked 'See ref [15]'; cited from earlier work
PC-3 (prostate cancer) [20] = conditions: read-out: IC50 PC-3; SRB; compound marked 'See ref [15]'; cited from earlier work
A549 (lung carcinoma) [21] = conditions: read-out: IC50 A549; SRB; compound marked 'See ref [15]'; cited from earlier work
[22] = tested on: SK-BR-3 (HER2-overexpressing breast cancer); conditions: read-out: IC50 SK-BR3; SRB; compound marked 'See ref [15]'; cited from earlier work
[23] = tested on: KB (epidermoid carcinoma of the nasopharynx); conditions: read-out: IC50 KB; SRB; compound marked 'See ref [15]'; cited from earlier work
[24] = tested on: HCT-8 (human colon adenocarcinoma); conditions: read-out: IC50 HCT-8; SRB; compound marked 'See ref [15]'; cited from earlier work
[25] = molecular target: ZR-75-1 (estrogen-receptor-positive, HER2-positive breast cancer); conditions: read-out: IC50 ZR-75-1; SRB; compound marked 'See ref [15]'; cited from earlier work
[26] = tested on: KB-VIN (P-gp-overexpressing MDR subline of KB); conditions: read-out: IC50 KB-VIN; SRB; compound marked 'See ref [15]'; cited from earlier work
[27] = tested on: HepG2 (hepatocellular carcinoma); conditions: read-out: IC50 Hep-G2; SRB; compound marked 'See ref [15]'; cited from earlier work

Row | Structure (SMILES) | IC50 (A549 (lung carcinoma) [2]) | IC50 (PC-3 (prostate cancer) [3]) | IC50 [5] | IC50 [6] | IC50 [7] | IC50 [8] | IC50 [9] | IC50 [10] | IC50 [11] | IC50 [1] | other results
1 | CCC1=C(O)c2c(oc(-c3ccccc3)cc2=O)C(CC)(CC)C1=O [Compound 2, 6,8,8-triethyldesmosdumotin B] | – | – | – | – | – | – | – | – | – | – | selective index (SI), IC50 against non-MDR cells divided by IC50 against MDR cells [12]: > 220
2 | CC(=O)O[C@H]1C(=O)[C@@]2(C)[C@H]([C@H](OC(=O)c3ccccc3)[C@]3(O)C[C@H](OC(=O)[C@H](O)[C@@H](NC(=O)c4ccccc4)c4ccccc4)C(C)=C1C3(C)C)[C@]1(OC(C)=O)CO[C@@H]1C[C@@H]2O [PXL, paclitaxel, reference compound] | – | – | – | – | – | – | – | – | – | – | effect on cell cycle distribution (KB-VIN cells [16]): did not show any effect; microtubule morphology (PC-3 cells [15]): inhibited the onset of mitosis and arrested cells at prometaphase with condensed chromosomes; effect on cell cycle distribution (KB cells): significantly impacted the cell cycle
3 | CC1=C(O)C(C)(C)c2oc(-c3ccccc3)cc(=O)c2C1=O [Compound 1, Desmosdumotin B, reference compound] | > 40000 nM | > 40000 nM | – | – | > 135000 nM | > 40000 nM | > 40000 nM | > 40000 nM | > 40000 nM | 6760 nM | ITA, inhibition of purified tubulin assembly, EC50 (bovine brain tubulin [13]; 10 µM tubulin, 0.4 mM GTP, 30 °C, NA = not active): no effects on tubulin assembly; selective index (SI), IC50 against non-MDR cells divided by IC50 against MDR cells [12]: > 20; effect on tubulin assembly in cells (KB-VIN cells [17]): no effects on tubulin assembly
4 | CCC1=C(O)c2c(oc(-c3csc4ccccc34)cc2=O)C(CC)(CC)C1=O [Compound 4, 2-(benzo[b]thiophene-3′-yl)-6,8,8-triethyldesmosdumotin B] | – | – | – | – | – | – | – | – | – | – | IC50 [18]: 700 nM; IC50 [19]: 720 nM; IC50 (PC-3 (prostate cancer) [20]): 160 nM; effect on cell cycle distribution (KB-VIN cells [16]): Accumulation of G2/M phase as well as S phase cells; effect on cell cycle distribution (PC-3 cells [14]): efficiently induced accumulation of G2/M phase cells; IC50 (A549 (lung carcinoma) [21]): 60 nM; microtubule morphology (PC-3 cells [15]): induced depolymerization of cytosolic microtubules as well monopolar (arrow heads) or multipolar spindle formations in the G2/M-phase; dose-dependent effects on microtubule morphology (PC-3 cells [15]): Dose-dependent disruption of both interphase microtubules and spindles; IC50 [22]: 500 nM; IC50 [23]: 80 nM; IC50 [24]: 130 nM; IC50 [25]: 850 nM; IC50 [26]: 70 nM; effect on cell cycle distribution (KB cells): Accumulation of G2/M phase as well as S phase cells; IC50 [27]: 130 nM

The next lines start with results.

Row | IC50 (A549 (lung carcinoma) [2]) | IC50 (PC-3 (prostate cancer) [3]) | IC50 [5] | IC50 [6] | IC50 [7] | IC50 [8] | IC50 [9] | IC50 [10] | IC50 [11] | Structure (SMILES) | IC50 [1] | other results
5 | 940 nM | 1110 nM | 370 nM | 1020 nM | 740 nM | – | – | – | – | CCC1=C(O)c2c(oc(-c3ccc(O)c4ccccc34)cc2=O)C(CC)(CC)C1=O [Compound 16, 2-(4′-Hydroxynaphthalen-1′-yl)-6,8,8-triethyldesmosdumo-tin B] | 450 nM | antiproliferative effect, times greater than parent compound 5 (human tumor cell lines; HepG2, KB and KB-VIN): 2–6 times; ICB, percent inhibition of colchicine binding (bovine brain tubulin [4]): 54%
6 | 14900 nM | 12900 nM | 13400 nM | 14100 nM | 19900 nM | 13800 nM | – | – | – | CCC1=C(O)c2c(oc(-c3ccc4cc(O)ccc4c3)cc2=O)C(CC)(CC)C1=O [Compound 19, 2-(6′-Hydroxynaphthalen-2′-yl)-6,8,8-triethyldesmosdumo-tin B] | 13700 nM | fold less active than 15 and 16 (human tumor cell lines; generally, over the tested cell lines): ~10 fold
7 | 15800 nM | 8510 nM | – | – | 12100 nM | 7970 nM | 7220 nM | 8170 nM | 9810 nM | CCC1=C(O)c2c(oc(-c3csc4c(OC)cccc34)cc2=O)C(CC)(CC)C1=O [Compound 12, 2-(7′-Methoxybenzo[b]thiophen-3′-yl)-6,8,8-triethyldes-mosdumotin B] | 10700 nM | IC50 Hep-G2 ([5]; 72 h): NA (NA, not active (IC50 > 10 µg/mL)); IC50 HCT-8 [6]: NA (NA, not active (IC50 > 10 µg/mL))
8 | 1780 nM | 1730 nM | 1290 nM | 1710 nM | 2010 nM | 650 nM | 2750 nM | 710 nM | 11600 nM | CCC1=C(O)c2c(oc(-c3csc4cccc(O)c34)cc2=O)C(CC)(CC)C1=O [Compound 6, 2-(4′-Hydroxybenzo[b]thiophen-3′-yl)-6,8,8-triethyldesmos-dumotin B] | – | inhibitory effect on tubulin assembly, fold greater than 8 (bovine brain tubulin [13]; 6 compared with 8): 2 fold; effect on cell cycle distribution (PC-3 cells [14]): efficiently induced accumulation of G2/M phase cells; dose-dependent effects on microtubule morphology (PC-3 cells [15]): Dose-dependent disruption of both interphase microtubules and spindles; ICB, percent inhibition of colchicine binding (bovine brain tubulin [4]): 70%; inhibitory effect on colchicine binding, fold greater than 8 (bovine brain tubulin [4]; 6 compared with 8): 2 fold
